Assay results taken from patent US20140323500A1, “NADPH OXIDASE 4 INHIBITORS AND USE THEREOF” (GENKYOTEX SA, priority 2011, published 2014).

Target: T1, human Nox4 (Homo sapiens, UniProt Q9NPH5)
T1 construct: expressed in transfected cells; host or cells: T-REx-293 (hNOX4 T-REx-293), tetracycline-induced; membrane fraction
T1 sequence (Q9NPH5 1-578): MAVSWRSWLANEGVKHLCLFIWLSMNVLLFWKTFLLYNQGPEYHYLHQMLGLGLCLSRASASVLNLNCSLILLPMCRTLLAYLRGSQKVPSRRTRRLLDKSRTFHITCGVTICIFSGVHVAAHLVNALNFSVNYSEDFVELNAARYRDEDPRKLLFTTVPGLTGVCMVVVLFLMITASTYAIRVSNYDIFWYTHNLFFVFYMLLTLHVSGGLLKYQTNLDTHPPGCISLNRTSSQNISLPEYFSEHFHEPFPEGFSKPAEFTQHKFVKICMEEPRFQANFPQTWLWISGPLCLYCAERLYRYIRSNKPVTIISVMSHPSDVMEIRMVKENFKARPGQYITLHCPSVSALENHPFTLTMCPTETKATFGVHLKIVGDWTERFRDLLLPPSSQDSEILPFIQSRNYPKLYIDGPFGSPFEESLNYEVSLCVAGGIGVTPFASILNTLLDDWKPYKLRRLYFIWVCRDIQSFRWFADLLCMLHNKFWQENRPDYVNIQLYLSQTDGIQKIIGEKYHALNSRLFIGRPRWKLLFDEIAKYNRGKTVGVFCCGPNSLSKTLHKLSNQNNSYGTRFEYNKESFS
T1 sequence (P13498 2-195 partner limits assumed): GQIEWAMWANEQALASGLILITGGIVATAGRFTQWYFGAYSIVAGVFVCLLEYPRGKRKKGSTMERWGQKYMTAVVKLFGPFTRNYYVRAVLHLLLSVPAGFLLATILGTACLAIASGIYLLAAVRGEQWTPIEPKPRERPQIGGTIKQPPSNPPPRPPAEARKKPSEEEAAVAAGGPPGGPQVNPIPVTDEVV
Assay: ROS production by membranes expressing human Nox4, cell-free Amplex Red assay
Assay type: biochemical
Conditions: cell-free membranes, Amplex Red; Cheng-Prusoff; average of at least three experiments in triplicate; read-out: Ki hNox4
Procedure, shortened: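 Membranes from tetracycline-induced (1 μg/ml, 24 h) T-REx cells overexpressing human Nox4, incubated in PBS with Amplex Red, HRP and co-factors; NADPH starts ROS production. Compounds 1 nM-100 μM, 20 min at 37° C.; fluorescence (ex 544/em 590 nm) over 10 min; Ki via Cheng-Prusoff, ≥3 experiments in triplicate.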

In the case of `COc1ccc(-c2c3c(=O)n(-c4ccccc4OC)[nH]c3cc(=O)n2Cc2cccnc2)c(F)c1` [Compound (1), 4-(2-fluoro-4-methoxyphenyl)-2-(2-methoxyphenyl)-5-(pyridin-3-ylmethyl)-1H-pyrazolo[4,3-c]pyridine-3,6(2H,5H)-dione], the Ki is reported as 75 nM.
